# Source: ChEMBL document CHEMBL5126542, “Toll-like receptor 4 (TLR4) inhibitors: Current research and prospective” (Eur J Med Chem, 2022)
# Legend:
# [1] = Inhibition of HMGB1-induced TLR4 protein expression in mouse primary microglia preincubated for 12 hrs followed by HMGB1 stimulation for 30 mins by Western blot analysis; format: functional; conditions: time 12.5 hrs
# Toll-like receptor 4 [2] = target: T1, Toll-like receptor 4 (Homo sapiens, UniProt O00206); test: Inhibition of LPS-stimulated TLR4 activation in HEK-Blue-hTLR4 cells assessed as reduction in SEAP release preincubated for 15 mins followed by LPS stimulation and measured after 16 hrs by microplate reader assay; format: cell-based
# T1 sequence (O00206 whole entry): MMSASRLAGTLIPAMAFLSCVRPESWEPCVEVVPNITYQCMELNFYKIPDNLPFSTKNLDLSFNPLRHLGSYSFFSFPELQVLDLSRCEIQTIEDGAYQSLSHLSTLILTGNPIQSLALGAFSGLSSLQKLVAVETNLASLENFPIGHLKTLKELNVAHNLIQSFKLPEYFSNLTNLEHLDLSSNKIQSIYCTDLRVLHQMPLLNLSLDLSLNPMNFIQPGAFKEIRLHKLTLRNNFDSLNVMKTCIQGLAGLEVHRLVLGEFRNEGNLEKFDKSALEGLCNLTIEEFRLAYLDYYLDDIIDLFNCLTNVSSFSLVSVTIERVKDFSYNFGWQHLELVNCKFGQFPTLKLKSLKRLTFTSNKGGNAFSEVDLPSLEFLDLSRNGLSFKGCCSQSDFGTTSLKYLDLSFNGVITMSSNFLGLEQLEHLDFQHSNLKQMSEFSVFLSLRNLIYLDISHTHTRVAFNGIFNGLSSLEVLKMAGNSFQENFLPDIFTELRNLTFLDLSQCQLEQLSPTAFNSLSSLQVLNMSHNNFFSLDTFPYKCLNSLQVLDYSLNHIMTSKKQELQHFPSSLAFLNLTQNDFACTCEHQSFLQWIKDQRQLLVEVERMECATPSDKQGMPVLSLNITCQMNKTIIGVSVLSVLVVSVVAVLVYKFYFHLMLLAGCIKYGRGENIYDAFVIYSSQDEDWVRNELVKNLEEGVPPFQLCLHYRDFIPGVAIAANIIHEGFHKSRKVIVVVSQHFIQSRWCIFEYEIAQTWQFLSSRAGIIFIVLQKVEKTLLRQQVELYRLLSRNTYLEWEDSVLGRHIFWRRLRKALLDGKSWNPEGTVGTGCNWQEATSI
# Toll-like receptor 4 [3] = target: T1, Toll-like receptor 4; test: Inhibition of human TLR4 expressed in HEK293-Blue hTLR4 cells assessed as SEAP expression; format: cell-based, HEK-Blue hTLR4
# [4] = Cytotoxicity against HEK293 cells assessed as cell survival at 10 uM incubated for 16 to 24 hrs by MTT method; format: toxicity, cell-based; conditions: human, time 16-24 hrs, read-out: Activity
# Toll-like receptor 4 [5] = target: T1, Toll-like receptor 4; test: Inhibition of TLR4 in HEK293 cells assessed as reduction in LPS-stimulated NF-kappaB activation at 10 uM incubated for 16 to 24 hrs by SEAP reporter gene assay relative to control; format: cell-based; conditions: time 16-24 hrs
# HEK293T = test: Inhibition of LPS-stimulated human TLR4/MD2 expressed in HEK293T cells assessed as reduction in NF-kappaB activation preincubated for 1 hr followed by LPS stimulation for 8 hrs by luciferase reporter gene assay; format: cell-based; conditions: time 9.0 hrs
# [6] = Inhibition of LPS-stimulated NO production in mouse RAW264.7 cells at 10 nM incubated for overnight by 2,3-diaminonaphthalene assay relative to control; format: functional
# Toll-like receptor 4 [7] = target: T1, Toll-like receptor 4; test: Binding affinity to TLR4 in human THP-1 monocytes after 48 hrs by ELISA; format: cell-based
# HEK293 = test: Cytotoxicity against HEK293 cells assessed as cell survival at 20 uM incubated for 16 to 24 hrs by MTT method; format: functional; conditions: Homo sapiens, time 16-24 hrs, read-out: Activity
# Toll-like receptor 4 [8] = target: T1, Toll-like receptor 4; test: Inhibition of TLR4 in HEK293 cells assessed as reduction in LPS-stimulated NF-kappaB activation at 20 uM incubated for 16 to 24 hrs by SEAP reporter gene assay relative to control; format: cell-based; conditions: time 16-24 hrs
# RAW264.7 [9] = test: Antiinflammatory activity in mouse RAW264.7 cells assessed as decrease in LPS-induced NO secretion preincubated for 1 hr followed by LPS stimulation and measured after 24 hrs by Griess reagent based assay; format: functional, cell-based
# [10] = Inhibition of TLR4 expression in human monocytes; format: functional, cell-based; conditions: Monocyte
# RAW264.7 [11] = test: Antiinflammatory activity in mouse RAW264.7 cells assessed as decrease in LPS-induced IL-1beta secretion preincubated for 1 hr followed by LPS stimulation and measured after 24 hrs by ELISA; format: functional, cell-based
# RAW264.7 [12] = test: Antiinflammatory activity in mouse RAW264.7 cells assessed as decrease in LPS-induced TNF-alpha secretion preincubated for 1 hr followed by LPS stimulation and measured after 24 hrs by ELISA; format: functional, cell-based
# [13] = Inhibition of LPS-induced NO production in mouse BV-2 microglia cells incubated for 24 hrs by 2,3-diaminonaphthalene assay; format: functional, cell-based; conditions: BV-2, 24 h
# Liver [14] = test: Inhibition of CIS-induced MyD88 mRNA expression in rat hepatic tissue by SYBR-green dye based RT-PCR analysis; format: functional
# Liver [15] = test: Inhibition of CIS-induced TLR4 mRNA expression in rat hepatic tissue by SYBR-green dye based RT-PCR analysis; format: functional
# Liver [16] = test: Inhibition of CIS-induced TLR4 protein expression in rat hepatic tissue by Western blot analysis; format: functional
# Liver [17] = test: Inhibition of CIS-induced NF-kappaBp53 mRNA expression in rat hepatic tissue by SYBR-green dye based RT-PCR analysis; format: functional
smiles,measurement,setting,value
COc1ccc(C[C@H]2COC(=O)[C@@H]2Cc2ccc(O[C@@H]3O[C@H](CO)[C@@H](O)[C@H](O)[C@H]3O)c(OC)c2)cc1OC [ARCTIIN],MIC,[1],≤ 50 µM
CCCCCCCCCCCCCC(=O)N[C@H]1[C@H](OC(=O)CCC(=O)O)O[C@H](CO)[C@@H](OC(=O)CCC(=O)O)[C@@H]1OC(=O)CCCCCCCCCCCCC,IC50,Toll-like receptor 4 [2],5.91 µM
COc1ccc(N/C(N)=N/c2ncc(C(=O)c3ccccc3O)cn2)cc1,IC50,Toll-like receptor 4 [3],27 µM
C=CC(=O)N(c1ccc(F)cc1Cl)S(=O)(=O)N1CCCCC1C(=O)OC (stereo not drawn),viability at 10 µM,[4],92.2%
same,inhibition,Toll-like receptor 4 [5],100%
CCCCC/C=C\C/C=C\CCCCCCC(=O)N[C@H]1[C@H](OC(=O)CCC(=O)O)O[C@H](CO)[C@@H](OC(=O)CCC(=O)O)[C@@H]1OC(=O)CCCCCC/C=C\C/C=C\CCCCC,IC50,Toll-like receptor 4 [2],4.35 µM
O=C(/C=C/c1ccc(O)c(O)c1)OCCc1ccccc1,MIC,HEK293T,1 µM
N/C(=N\c1ncc(C(=O)c2cc(Cl)ccc2O)cn1)Nc1ccc(F)cc1,IC50,Toll-like receptor 4 [3],40 µM
CCOC(=O)C1=C[C@@H](O)CC[C@H]1S(=O)(=O)Cc1ccc(F)cc1Cl,inhibition at 0.01 µM,[6],98%
CC(=O)N[C@H]1[C@H](OC2CCCCC2)O[C@H](CO)[C@@H](O[C@@H]2O[C@H](CO)[C@@H](O[C@@H]3O[C@H](CO)[C@@H](O[C@@H]4O[C@H](CO)[C@@H](O[C@@H]5O[C@H](CO)[C@@H](O[C@@H]6O[C@H](CO)[C@@H](O)[C@H](O)[C@H]6NC(C)=O)[C@H](O)[C@H]5NC(C)=O)[C@H](O)[C@H]4NC(C)=O)[C@H](O)[C@H]3NC(C)=O)[C@H](O)[C@H]2NC(C)=O)[C@@H]1O,IC50,Toll-like receptor 4 [7],0.15 µM
C=CC(=O)N(c1ccc(F)cc1Cl)S(=O)(=O)c1ccccc1C(=O)OC,viability at 10 µM,[4],88.5%
same,inhibition,Toll-like receptor 4 [5],100%
CC(C)Nc1ccc(N2CC[C@]34CCCC[C@H]3[C@H]2Cc2ccc(O)cc24)cc1,viability at 20 µM,HEK293,89.9%
same,inhibition,Toll-like receptor 4 [8],99.8%
COc1ccc(C(=O)c2cnc(/N=C(\N)Nc3ccc(F)cc3)nc2)c(O)c1,IC50,Toll-like receptor 4 [3],18 µM
COc1ccc(C(C)=O)c(Oc2ccc(NC(=O)/C=C/c3cc(OC)c(OC)c(OC)c3)cc2)c1,IC50,RAW264.7 [9],6.96 µM
CC(=O)N[C@H]1[C@H](Oc2ccc([N+](=O)[O-])cc2)O[C@H](CO)[C@@H](O)[C@@H]1O,IC50,[10],0.042 µM
CCCCCCCCC/C=C\CCCCCCC(=O)N[C@H]1[C@H](OC(=O)CCC(=O)O)O[C@H](CO)[C@@H](OC(=O)CCC(=O)O)[C@@H]1OC(=O)CCCCCCCCCCCCC,IC50,Toll-like receptor 4 [2],2.7 µM
O=S(=O)(Nc1ccc(C(F)(F)F)cc1)c1cccc2cccnc12,IC50,RAW264.7 [9],2.61 µM
same,IC50,RAW264.7 [11],12.7 µM
same,IC50,RAW264.7 [12],9.74 µM
CCCCC/C=C\C/C=C\CCCCCCC(=O)N[C@H]1[C@H](OC(=O)CCC(=O)O)O[C@H](CO)[C@@H](OC(=O)CCC(=O)O)[C@@H]1OC(=O)CCCCCCCCCCCCC,IC50,Toll-like receptor 4 [2],6.61 µM
O=C1CC[C@@]2(O)[C@H]3Cc4ccc(O)c5c4[C@@]2(CCN3CC2CC2)[C@H]1O5 [NALTREXONE],IC50,[13],106 µM
CC(/C=C/C=C(\C)C(=O)O[C@@H]1O[C@H](CO[C@@H]2O[C@H](CO)[C@@H](O)[C@H](O)[C@H]2O)[C@@H](O)[C@H](O)[C@H]1O)=C\C=C\C=C(C)\C=C\C=C(/C)C(=O)O[C@@H]1O[C@H](CO[C@@H]2O[C@H](CO)[C@@H](O)[C@H](O)[C@H]2O)[C@@H](O)[C@H](O)[C@H]1O [CROCIN],inhibition (INH),Liver [14],53.2%
same,inhibition (INH),Liver [15],57.7%
same,inhibition (INH),Liver [16],53.1%
same,inhibition (INH),Liver [17],66.2%
CCCCCCCC/C=C\CCCCCCC(=O)N[C@H]1[C@H](OC(=O)CCC(=O)O)O[C@H](CO)[C@@H](OC(=O)CCC(=O)O)[C@@H]1OC(=O)CCCCCC/C=C\CCCCCCCC,IC50,Toll-like receptor 4 [2],3.5 µM
